Results from patent publication US20260053932A1, “COMPOUNDS AND METHODS FOR THE TARGETED DEGRADATION OF ANDROGEN RECEPTOR AND ASSOCIATED METHODS OF USE” (Arvinas Operations, Inc., priority 2020, published 2026).

What follows are compounds tested on androgen receptor (AR) in LNCaP and/or VCaP cells (assay: Androgen Receptor ELISA assay (AR degradation)). Settings: LNCaP and/or VCaP cells; 5 hours incubation; media with R1881; read-out: DC50 Code* (degradation of AR ELISA).
Format: cell-based
Summary of the method: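 VCaP cells grown ≥3 days, then treated 5 h with compound in media containing 1 nM R1881 (10× stock). Cells lysed and AR quantified by sandwich ELISA (mouse AR detection Ab, HRP anti-mouse, TMB). DC50 and Dmax derived from AR degradation.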

DC50 [nM] | Structure (SMILES)
< 1 | COc1cc(O[C@H]2CC[C@H](NC(=O)c3cnc(N4CCC(CN(C(C)=O)[C@H]5C[C@H](Oc6ccc7c(c6)C(=O)N(C6CCC(=O)NC6=O)C7=O)C5)CC4)cn3)CC2)ccc1C#N (some centres unmarked) [Compound 29, N-((1r,4r)-4-(4-cyano-3-methoxyphenoxy)cyclohexyl)-5-(4-((N-((1r,3r)-3-((2-(2,6-dioxopiperidin-3-yl)-1,3-dioxoisoindolin-5-yl)oxy)cyclobutyl)acetamido)methyl)piperidin-1-yl)pyrazine-2-carboxamide]
< 1 | N#Cc1ccc(O[C@H]2CC[C@H](NC(=O)c3cnc(N4CCC(CN(C5COC5)[C@H]5C[C@H](Oc6ccc7c(c6)C(=O)N(C6CCC(=O)NC6=O)C7=O)C5)CC4)cn3)CC2)cc1Cl (some centres unmarked) [Compound 61, N-((1r,4r)-4-(3-chloro-4-cyanophenoxy)cyclohexyl)-5-(4-((((1r,3r)-3-((2-(2,6-dioxopiperidin-3-yl)-1,3-dioxoisoindolin-5-yl)oxy)cyclobutyl) (oxetan-3-yl)amino)methyl)piperidin-1-yl)pyrazine-2-carboxamide]
< 1 | CC(C)N(CC1CCN(c2cnc(C(=O)N[C@H]3CC[C@H](Oc4ccc(C#N)c(Cl)c4)CC3)cn2)CC1)[C@H]1C[C@H](Oc2ccc3c(c2)C2(CC2)N(C2CCC(=O)NC2=O)C3=O)C1 (some centres unmarked) [Compound 65, N-((1r,4r)-4-(3-chloro-4-cyanophenoxy)cyclohexyl)-5-(4-((((1r,3r)-3-((2′-(2,6-dioxopiperidin-3-yl)-3′-oxospiro[cyclopropane-1,1′-isoindolin]-6′-yl)oxy)cyclobutyl) (isopropyl)amino)methyl)piperidin-1-yl)pyrazine-2-carboxamide]
< 1 | CCOc1cc(O[C@H]2CC[C@H](NC(=O)c3cnc(N4CCC(CN(C(C)C)[C@H]5C[C@H](Oc6ccc7c(c6)C(=O)N(C6CCC(=O)NC6=O)C7=O)C5)CC4)cn3)CC2)ccc1C#N (some centres unmarked) [Compound 64, N-((1r,4r)-4-(4-cyano-3-ethoxyphenoxy)cyclohexyl)-5-(4-((((1r,3r)-3-((2-(2,6-dioxopiperidin-3-yl)-1,3-dioxoisoindolin-5-yl)oxy)cyclobutyl) (isopropyl)amino)methyl)piperidin-1-yl)pyrazine-2-carboxamide]
1 to 10 | CCOc1cc(O[C@H]2CC[C@H](NC(=O)c3cnc(N4CC(CN(C(C)C)[C@H]5C[C@H](Oc6ccc7c(c6)C(=O)N(C6CCC(=O)NC6=O)C7=O)C5)C4)nc3)CC2)ccc1C#N (some centres unmarked) [Compound 70, N-((1r,4r)-4-(4-cyano-3-ethoxyphenoxy)cyclohexyl)-2-(3-((((1r,3r)-3-((2-(2,6-dioxopiperidin-3-yl)-1,3-dioxoisoindolin-5-yl)oxy)cyclobutyl) (isopropyl)amino)methyl)azetidin-1-yl)pyrimidine-5-carboxamide]
< 1 | CC(C)Oc1cc(N2CCN(CC3CCN(c4ccc(C(=O)N[C@H]5CC[C@H](Oc6ccc(C#N)c(Cl)c6)CC5)nn4)CC3)CC2)cc2c1C(=O)N(C1CCC(=O)NC1=O)C2=O (some centres unmarked) [Compound 40, N-((1r,4r)-4-(3-chloro-4-cyanophenoxy)cyclohexyl)-6-(4-((4-(2-(2,6-dioxopiperidin-3-yl)-7-isopropoxy-1,3-dioxoisoindolin-5-yl)piperazin-1-yl)methyl)piperidin-1-yl)pyridazine-3-carboxamide]
> 100 | COc1cc(O[C@H]2C[C@H](N(CC3CCN(c4ncc(C(=O)NC5CC6CC(Oc7cc(C)c(C#N)c(C)c7)CC6C5)cn4)CC3)C(C)C)C2)cc2c1C(=O)N(C1CCC(=O)NC1=O)C2=O (some centres unmarked) [Compound 2, N-(5-(4-cyano-3,5-dimethylphenoxy)octahydropentalen-2-yl)-2-(4-((((1r,3r)-3-((2-(2,6-dioxopiperidin-3-yl)-7-methoxy-1,3-dioxoisoindolin-5-yl)oxy)cyclobutyl) (isopropyl)amino)methyl)piperidin-1-yl)pyrimidine-5-carboxamide]

Same assay, conditions: degradation of AR ELISA in LNCaP and/or VCaP cells; Table 2C; read-out: DC50 Code*

DC50 [nM] | Structure (SMILES)
< 1 | Cc1cc(O[C@H]2C(C)(C)[C@H](NC(=O)c3ccc(CN4CCOC[C@@H]4CN(C)[C@H]4C[C@H](Oc5ccc6c(c5)C(=O)N(C5CCC(=O)NC5=O)C6=O)C4)cc3)C2(C)C)cc(C)c1C#N (stereo partly drawn) [compound 148, N-((1r,3R)-3-(4-cyano-3,5-dimethylphenoxy)-2,2,4,4-tetramethylcyclobutyl)-4-(((3R)-3-((((1r,3R)-3-((2-(2,6-dioxopiperidin-3-yl)-1,3-dioxoisoindolin-5-yl)oxy)cyclobutyl) (methyl)amino)methyl)morpholino)methyl) benzamide]
< 1 | Cc1cc(O[C@H]2C(C)(C)[C@H](NC(=O)c3ccc(N4CCC(CN(CCN5CCOCC5)[C@H]5C[C@H](Oc6ccc7c(c6)C(=O)N(C6CCC(=O)NC6=O)C7=O)C5)CC4)cc3)C2(C)C)cc(C)c1C#N (mixture of isomers) [compound 188, rac-N-((1r,3r)-3-(4-cyano-3,5-dimethylphenoxy)-2,2,4,4-tetramethylcyclobutyl)-4-(4-((((1r,3r)-3-((2-(2,6-dioxopiperidin-3-yl)-1,3-dioxoisoindolin-5-yl)oxy)cyclobutyl)(2-morpholinoethyl)amino)methyl)piperidin-1-yl)benzamide]
< 1 | COc1cc(O[C@H]2C[C@H](N(C)C3CCN(c4ccc(C(=O)N[C@H]5C(C)(C)[C@H](Oc6cc(C)c(C#N)c(C)c6)C5(C)C)cc4)CC3)C2)cc2c1C(=O)N(C1CCC(=O)NC1=O)C2=O (mixture of isomers) [compound 189, rac-N-((1r,3r)-3-(4-cyano-3,5-dimethylphenoxy)-2,2,4,4-tetramethylcyclobutyl)-4-(4-(((1r,3r)-3-((2-(2,6-dioxopiperidin-3-yl)-7-methoxy-1,3-dioxoisoindolin-5-yl)oxy)cyclobutyl) (methyl)amino)piperidin-1-yl)benzamide]
< 1 | COCCN(CC1CCN(c2ccc(C(=O)N[C@H]3C(C)(C)[C@H](Oc4cc(C)c(C#N)c(C)c4)C3(C)C)cc2)CC1)[C@H]1C[C@H](Oc2ccc3c(c2)C(=O)N(C2CCC(=O)NC2=O)C3=O)C1 (some centres unmarked) [compound 96, N-((1r,3r)-3-(4-cyano-3,5-dimethylphenoxy)-2,2,4,4-tetramethylcyclobutyl)-4-(4-((((1r,3r)-3-((2-(2,6-dioxopiperidin-3-yl)-1,3-dioxoisoindolin-5-yl)oxy)cyclobutyl)(2-methoxyethyl)amino)methyl)piperidin-1-yl)benzamide]
1 to 10 | Cc1cc(O[C@H]2C(C)(C)[C@H](NC(=O)c3cnc(N4CC(CCN5CCC(Oc6ccc7c(c6)C(=O)N(C6CCC(=O)NC6=O)C7=O)CC5)C4)nc3)C2(C)C)cc(C)c1C#N (some centres unmarked) [compound 133, N-((1r,3r)-3-(4-cyano-3,5-dimethylphenoxy)-2,2,4,4-tetramethylcyclobutyl)-2-(3-(2-(4-((2-(2,6-dioxopiperidin-3-yl)-1,3-dioxoisoindolin-5-yl)oxy)piperidin-1-yl)ethyl)azetidin-1-yl)pyrimidine-5-carboxamide]
< 1 | COc1cc(O[C@H]2C[C@H](N(CC3CCN(c4ncc(C(=O)N[C@H]5C(C)(C)[C@H](Oc6cc(C)c(C#N)c(C)c6)C5(C)C)cn4)CC3)C(C)C)C2)cc2c1C(=O)N(C1CCC(=O)NC1=O)C2=O (some centres unmarked) [compound 79, N-((1r,3r)-3-(4-cyano-3,5-dimethylphenoxy)-2,2,4,4-tetramethylcyclobutyl)-2-(4-((((1r,3r)-3-((2-(2,6-dioxopiperidin-3-yl)-7-methoxy-1,3-dioxoisoindolin-5-yl)oxy)cyclobutyl) (isopropyl)amino)methyl)piperidin-1-yl)pyrimidine-5-carboxamide]
< 1 | CC(C)N(CC1CCN(c2ncc(C(=O)N[C@H]3C(C)(C)[C@H](Oc4ccc(C#N)c(Cl)c4)C3(C)C)cn2)CC1)[C@H]1C[C@H](Oc2ccc3c(c2)C(=O)N(C2CCC(=O)NC2=O)C3)C1 (some centres unmarked) [compound 95, N-((1r,3r)-3-(3-chloro-4-cyanophenoxy)-2,2,4,4-tetramethylcyclobutyl)-2-(4-((((1r,3r)-3-((2-(2,6-dioxopiperidin-3-yl)-3-oxoisoindolin-5-yl)oxy)cyclobutyl) (isopropyl)amino)methyl)piperidin-1-yl)pyrimidine-5-carboxamide]
< 1 | Cc1cc(O[C@H]2C(C)(C)[C@H](NC(=O)c3ccc(N4CCC(CN(C)[C@@H]5CC[C@H](Oc6ccc7c(c6)C(=O)N(C6CCC(=O)NC6=O)C7=O)C5)CC4)cc3)C2(C)C)cc(C)c1C#N (stereo partly drawn) [compound 166, N-((1r,3R)-3-(4-cyano-3,5-dimethylphenoxy)-2,2,4,4-tetramethylcyclobutyl)-4-(4-((((1R,3S)-3-((2-(2,6-dioxopiperidin-3-yl)-1,3-dioxoisoindolin-5-yl)oxy)cyclopentyl) (methyl)amino)methyl)piperidin-1-yl)benzamide]
< 1 | Cc1cc(O[C@H]2C(C)(C)[C@H](NC(=O)c3cnc(N4CCC(CN(C(C)C)[C@H]5C[C@H](Oc6ccc7c(c6)C(=O)N(C6CCC(=O)NC6=O)C7)C5)CC4)cn3)C2(C)C)cc(C)c1C#N (mixture of isomers) [compound 212, rac-N-((1r,3r)-3-(4-cyano-3,5-dimethylphenoxy)-2,2,4,4-tetramethylcyclobutyl)-5-(4-((((1r,3r)-3-((2-(2,6-dioxopiperidin-3-yl)-3-oxoisoindolin-5-yl)oxy)cyclobutyl) (isopropyl)amino)methyl)piperidin-1-yl)pyrazine-2-carboxamide]

Same assay, conditions: degradation of AR ELISA in LNCaP and/or VCaP cells; read-out: DC50 Code*

DC50 [nM] | Structure (SMILES)
1 to 10 | COCCN(CC1CCN(c2nc(C)c(C(=O)N[C@H]3C(C)(C)[C@H](Oc4ccc(C#N)c(OC)c4)C3(C)C)c(C)n2)CC1)[C@H]1C[C@H](Oc2ccc3c(c2)C(=O)N(C2CCC(=O)NC2=O)C3=O)C1 (mixture of isomers) [compound 240, rac-N-((1r,3r)-3-(4-cyano-3-methoxyphenoxy)-2,2,4,4-tetramethylcyclobutyl)-2-(4-((((1r,3r)-3-((2-(2,6-dioxopiperidin-3-yl)-1,3-dioxoisoindolin-5-yl)oxy)cyclobutyl)(2-methoxyethyl)amino)methyl)piperidin-1-yl)-4,6-dimethylpyrimidine-5-carboxamide]
